Source: patent publication US10377753B2, “Substituted 4-azaindoles and their use as GluN2B receptor modulators” (Janssen Pharmaceutica NV, priority 2015, dated 2019)

Target: cloned human NR1/NR2B ion channels (Homo sapiens (Human), UniProt Q05586+Q13224)
Assay: HNR2BC: effects of test articles on cloned human NR1/NR2B ion channels expressed in mammalian cells (FLIPR calcium flux)
Format: cell-based
Details: cloned human NR1/NR2B ion channels, Table 5
Procedure, shortened: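 Compounds were added to dye-loaded cells for 5 min with fluorescence monitored for agonism, followed by co-agonists (glutamate ~EC80, glycine 10 μM saturating) for 5 min. Cells stably expressed inducible human NR1/NR2B, and the buffer was pH 7.4. The FLIPR Ca2+ flux signal was normalized against control wells.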

cloned human NR1/NR2B ion channels, sequence (Q13224 27-1484, other chains not shown): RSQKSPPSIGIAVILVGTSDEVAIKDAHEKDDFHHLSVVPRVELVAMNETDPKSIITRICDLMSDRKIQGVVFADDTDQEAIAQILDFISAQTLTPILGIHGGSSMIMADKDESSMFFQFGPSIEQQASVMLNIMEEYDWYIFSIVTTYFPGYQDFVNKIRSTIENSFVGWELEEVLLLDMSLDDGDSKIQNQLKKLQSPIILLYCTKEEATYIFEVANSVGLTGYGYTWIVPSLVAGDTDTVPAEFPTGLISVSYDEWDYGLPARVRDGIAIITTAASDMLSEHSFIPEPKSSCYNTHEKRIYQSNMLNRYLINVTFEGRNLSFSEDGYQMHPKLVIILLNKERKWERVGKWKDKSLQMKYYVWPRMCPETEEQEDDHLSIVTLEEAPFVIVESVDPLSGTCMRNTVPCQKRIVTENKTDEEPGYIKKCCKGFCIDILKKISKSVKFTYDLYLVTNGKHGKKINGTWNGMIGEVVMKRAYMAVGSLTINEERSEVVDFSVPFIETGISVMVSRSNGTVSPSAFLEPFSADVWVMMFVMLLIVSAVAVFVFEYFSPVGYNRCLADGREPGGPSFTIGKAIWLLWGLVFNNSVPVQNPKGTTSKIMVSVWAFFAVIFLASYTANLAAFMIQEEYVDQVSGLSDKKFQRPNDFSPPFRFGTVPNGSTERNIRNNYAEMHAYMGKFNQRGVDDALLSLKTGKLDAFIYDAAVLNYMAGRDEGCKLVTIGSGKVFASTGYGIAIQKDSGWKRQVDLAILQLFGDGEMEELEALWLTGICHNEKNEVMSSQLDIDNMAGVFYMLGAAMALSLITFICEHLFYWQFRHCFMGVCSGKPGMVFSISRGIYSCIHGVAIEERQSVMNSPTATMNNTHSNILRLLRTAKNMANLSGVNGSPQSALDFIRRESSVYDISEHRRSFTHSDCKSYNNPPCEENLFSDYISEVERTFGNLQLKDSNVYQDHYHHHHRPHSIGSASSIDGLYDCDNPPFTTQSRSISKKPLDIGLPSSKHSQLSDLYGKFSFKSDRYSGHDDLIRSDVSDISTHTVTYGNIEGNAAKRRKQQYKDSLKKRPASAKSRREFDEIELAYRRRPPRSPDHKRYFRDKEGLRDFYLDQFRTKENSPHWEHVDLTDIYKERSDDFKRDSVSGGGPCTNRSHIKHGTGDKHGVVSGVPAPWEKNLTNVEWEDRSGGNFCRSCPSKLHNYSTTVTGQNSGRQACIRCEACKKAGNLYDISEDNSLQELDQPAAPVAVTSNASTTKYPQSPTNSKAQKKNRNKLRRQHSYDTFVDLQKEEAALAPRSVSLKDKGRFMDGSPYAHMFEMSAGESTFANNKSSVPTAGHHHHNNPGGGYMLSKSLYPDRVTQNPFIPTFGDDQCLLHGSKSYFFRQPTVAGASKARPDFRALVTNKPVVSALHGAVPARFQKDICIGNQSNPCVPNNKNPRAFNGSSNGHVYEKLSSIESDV

Compound	IC50 [nM]
CN(C)C(=O)Cn1cc(F)c2ncc(-c3cc(F)cc(F)c3)cc21 [Example 509, 2-[6-(3,5-Difluorophenyl)-3-fluoro-pyrrolo[3,2-b]pyridin-1-yl]-N,N-dimethyl-acetamide]	31.6
O=C(Cn1cc(Cl)c2ncc(-c3ccccc3F)cc21)N1CCC1 [Example 521, 1-(Azetidin-1-yl)-2-[3-chloro-6-(2-fluorophenyl)pyrrolo[3,2-b]pyridin-1-yl]ethanone]	126
O=C(Cn1cc(Cl)c2ncc(-c3ccc(F)c(C(F)(F)F)c3)cc21)N1CCC1 [Example 523, 1-(Azetidin-1-yl)-2-[3-chloro-6-[4-fluoro-3-(trifluoromethyl)phenyl]pyrrolo[3,2-b]pyridin-1-yl]ethanone]	158
Cc1c(F)ccc(-c2cnc3c(Cl)cn(CC(=O)N4CCC4)c3c2)c1F [Example 525, 1-(Azetidin-1-yl)-2-[3-chloro-6-(2,4-difluoro-3-methyl-phenyl)pyrrolo[3,2-b]pyridin-1-yl]ethanone]	50.1
O=C(Cn1cc(Cl)c2ncc(-c3cccc(Cl)c3)cc21)N1CCC1 [Example 526, 1-(Azetidin-1-yl)-2-[3-chloro-6-(3-chlorophenyl)pyrrolo[3,2-b]pyridin-1-yl]ethanone]	63.1
O=C(Cn1cc(Cl)c2ncc(-c3ccc(F)c(Cl)c3)cc21)N1CCC1 [Example 527, 1-(Azetidin-1-yl)-2-[3-chloro-6-(3-chloro-4-fluoro-phenyl)pyrrolo[3,2-b]pyridin-1-yl]ethanone]	50.1
O=C(Cn1cc(Cl)c2ncc(-c3cccc(Cl)c3F)cc21)N1CCC1 [Example 528, 1-(Azetidin-1-yl)-2-[3-chloro-6-(3-chloro-2-fluoro-phenyl)pyrrolo[3,2-b]pyridin-1-yl]ethanone]	39.8
O=C(Cn1cc(Cl)c2ncc(-c3cccc(C(F)F)c3)cc21)N1CCC1 [Example 529, 1-(Azetidin-1-yl)-2-[3-chloro-6-[3-(difluoromethyl)phenyl]pyrrolo[3,2-b]pyridin-1-yl]ethanone]	79.4
O=C(Cn1cc(Cl)c2ncc(-c3cccc(F)c3)cc21)N1CCC1 [Example 530, 1-(Azetidin-1-yl)-2-[3-chloro-6-(3-fluorophenyl)pyrrolo[3,2-b]pyridin-1-yl]ethanone]	39.8
O=C(Cn1cc(Cl)c2ncc(-c3cc(F)cc(F)c3)cc21)N1CCC1 [Example 532, 1-(Azetidin-1-yl)-2-[3-chloro-6-(3,5-difluorophenyl)pyrrolo[3,2-b]pyridin-1-yl]ethanone]	50.1
CCc1cccc(-c2cnc3c(Cl)cn(CC(=O)N4CCC4)c3c2)c1 [Example 533, 1-(Azetidin-1-yl)-2-[3-chloro-6-(3-ethylphenyl)pyrrolo[3,2-b]pyridin-1-yl]ethanone]	50.1
O=C(Cn1cc(Cl)c2ncc(-c3ccccc3F)cc21)N1CC(F)C1 [Example 535, 2-[3-Chloro-6-(2-fluorophenyl)pyrrolo[3,2-b]pyridin-1-yl]-1-(3-fluoroazetidin-1-yl)ethanone]	200
O=C(Cn1cc(Cl)c2ncc(-c3cc(F)cc(F)c3)cc21)N1CC(F)C1 [Example 537, 2-[3-Chloro-6-(3,5-difluorophenyl)pyrrolo[3,2-b]pyridin-1-yl]-1-(3-fluoroazetidin-1-yl)ethanone]	12.6

More lines, now with the values ahead:

IC50 [nM]	Compound
39.8	CN(C)C(=O)Cn1cc(F)c2ncc(-c3cccc(F)c3)cc21 [Example 510, 2-[3-Fluoro-6-(3-fluorophenyl)pyrrolo[3,2-b]pyridin-1-yl]-N,N-dimethyl-acetamide]
316	CN(C)C(=O)Cn1cc(Cl)c2ncc(-c3ccccc3F)cc21 [Example 512, 2-[3-Chloro-6-(2-fluorophenyl)pyrrolo[3,2-b]pyridin-1-yl]-N,N-dimethyl-acetamide]
50.1	Cc1cccc(-c2cnc3c(Cl)cn(CC(=O)N(C)C)c3c2)c1F [Example 513, 2-[3-Chloro-6-(2-fluoro-3-methyl-phenyl)pyrrolo[3,2-b]pyridin-1-yl]-N,N-dimethyl-acetamide]
126	CN(C)C(=O)Cn1cc(Cl)c2ncc(-c3ccccc3)cc21 [Example 514, 2-(3-Chloro-6-phenyl-pyrrolo[3,2-b]pyridin-1-yl)-N,N-dimethyl-acetamide]
100	Cc1cccc(-c2cnc3c(Cl)cn(CC(=O)N(C)C)c3c2)c1 [Example 515, 2-[3-Chloro-6-(m-tolyl)pyrrolo[3,2-b]pyridin-1-yl]-N,N-dimethyl-acetamide]
200	CN(C)C(=O)Cn1cc(Cl)c2ncc(-c3ccc(F)c(C(F)(F)F)c3)cc21 [Example 516, 2-[3-Chloro-6-[4-fluoro-3-(trifluoromethyl)phenyl]pyrrolo[3,2-b]pyridin-1-yl]-N,N-dimethyl-acetamide]
100	CN(C)C(=O)Cn1cc(Cl)c2ncc(-c3cccc(C(F)(F)F)c3F)cc21 [Example 517, 2-[3-Chloro-6-[2-fluoro-3-(trifluoromethyl)phenyl]pyrrolo[3,2-b]pyridin-1-yl]-N,N-dimethyl-acetamide]
63.1	CN(C)C(=O)Cn1cc(Cl)c2ncc(-c3ccc(F)c(F)c3F)cc21 [Example 518, 2-[3-Chloro-6-(2,3,4-trifluorophenyl)pyrrolo[3,2-b]pyridin-1-yl]-N,N-dimethyl-acetamide]
63.1	Cc1c(F)ccc(-c2cnc3c(Cl)cn(CC(=O)N(C)C)c3c2)c1F [Example 519, 2-[3-Chloro-6-(2,4-difluoro-3-methyl-phenyl)pyrrolo[3,2-b]pyridin-1-yl]-N,N-dimethyl-acetamide]
79.4	CN(C)C(=O)Cn1cc(Cl)c2ncc(-c3ccc(F)c(Cl)c3)cc21 [Example 520, 2-[3-Chloro-6-(3-chloro-4-fluoro-phenyl)pyrrolo[3,2-b]pyridin-1-yl]-N,N-dimethyl-acetamide]
79.4	Cc1cccc(-c2cnc3c(Cl)cn(CC(=O)N4CCC4)c3c2)c1F [Example 522, 1-(Azetidin-1-yl)-2-[3-chloro-6-(2-fluoro-3-methyl-phenyl)pyrrolo[3,2-b]pyridin-1-yl]ethanone]
79.4	O=C(Cn1cc(Cl)c2ncc(-c3cccc(C(F)(F)F)c3F)cc21)N1CCC1 [Example 524, 1-(Azetidin-1-yl)-2-[3-chloro-6-[2-fluoro-3-(trifluoromethyl)phenyl]pyrrolo[3,2-b]pyridin-1-yl]ethanone]
50.1	CN(C)C(=O)Cn1cc(Cl)c2ncc(-c3cccc(F)c3)cc21 [Example 531, 2-[3-Chloro-6-(3-fluorophenyl)pyrrolo[3,2-b]pyridin-1-yl]-N,N-dimethyl-acetamide]
31.6	CN(C)C(=O)Cn1cc(Cl)c2ncc(-c3cccc(Cl)c3)cc21 [Example 534, 2-[3-Chloro-6-(3-chlorophenyl)pyrrolo[3,2-b]pyridin-1-yl]-N,N-dimethyl-acetamide]
25.1	Cc1cccc(-c2cnc3c(Cl)cn(CC(=O)N4CC(F)C4)c3c2)c1F [Example 536, 2-[3-Chloro-6-(2-fluoro-3-methyl-phenyl)pyrrolo[3,2-b]pyridin-1-yl]-1-(3-fluoroazetidin-1-yl)ethanone]
79.4	O=C(Cn1cc(Cl)c2ncc(-c3cccc(C(F)(F)F)c3F)cc21)N1CC(F)C1 [Example 538, 2-[3-Chloro-6-[2-fluoro-3-(trifluoromethyl)phenyl]pyrrolo[3,2-b]pyridin-1-yl]-1-(3-fluoroazetidin-1-yl)ethanone]
